Here are results for 9 molecules from PubChem BioAssay (NCI).

Holding throughout (assay): NCI tumour cell line growth inhibition, 48 h
Assay [1] relates to HCC-2998 colon.
The test system of assay [2] is HCT-15 colon.
Assay [3] has as its system HT29 colon.
Assay [4] concerns M14 melanoma.
In assay [5] the test system is MCF7 breast.
Assay [6] concerns OVCAR-3 ovarian.
The subject of assay [7] is OVCAR-8 ovarian.
Assay [8] has as its system RXF 393 renal.
Assay [9] concerns SN12C renal.
Assay [10] has as its system SR leukemia.

Each structure is given as a SMILES string. Where “and” joins values, the source holds several entries; their conditions need not be identical. Identical values can stand only once.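 48-hour exposure; five concentrations; linearly interpolated endpoints. GI50 = concentration required for 50% inhibition of growth. TGI denotes the concentration required for complete inhibition of growth.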

`CC1=CC(=O)C2=C(C)CCC3C(C)C(=O)OC3C12` (configuration not stated): the TGI in assay [1], in assay [2], in [3], in assay [4], in assay [5] and in assay [6] was more than 100 µM in each case. Also, the TGI in assay [7], in [8], in assay [9] and in assay [10] was more than 100 µM each time.

For the molecule `CC(C)(CN1CCCCC1)C(=O)/C=C/c1ccc(/C=C/C(=O)C(C)(C)CN2CCCCC2)cc1`, the TGI was 1.07 µM in assay [1]; 0.703 µM in assay [2]; 0.514 µM in assay [3]; 3.26 µM in [4]; 1.77 µM in [5]; 1.17 µM in assay [6]. In addition, the TGI was found to be 3.57 µM in [7], 0.745 µM in assay [8], 0.589 µM in assay [9] and 0.646 µM in [10].

Consider `c1ccc2sc(SCCSc3nc4ccccc4s3)nc2c1`, for which the TGI in assay [1], in assay [2], in assay [3], in [4], in assay [5] and in assay [6] was more than 100 µM in each case. The TGI in [7], in [8], in assay [9] and in assay [10] was more than 100 µM throughout.

`COc1ccc(C2=N[C@@H](Cc3ccccc3)C(=O)Nc3ccsc32)cc1`: the GI50 in [1] is 12 µM; in [2] it was 3.9 µM; in assay [3], 4.04 µM; in [4], 3.66 µM; in assay [5], 3.73 µM; in assay [6] it was 3.56 µM. The GI50 is 6.31 µM in assay [7], 2.75 µM in assay [8], 8.28 µM in assay [9] and 2.63 µM in [10]. Moreover, the TGI was found to be 25.8 µM in assay [1]; 20.4 µM in [2]; 13.4 µM in [3]; 12.6 µM in [4]; 25.4 µM in assay [5]; 9.88 µM in [6]. Further, the TGI in [7] was found to be 57.6 µM; in assay [8], 9.6 µM; in [9], 25.7 µM; in [10] it was 11.7 µM.

Turning to `O=Nc1ccc(O)c(=O)cc1`, the GI50 in [1] is 3.35 µM; in assay [2], 2.37 µM; in assay [3], 2.45 µM; in assay [4], 2.52 µM; in [5], 2.73 µM; in assay [6], 1.39 µM. Moreover, the GI50 in assay [7] was 2.82 µM; in assay [8] it was 0.572 µM; in [9], 2.95 µM; in [10] it was 0.954 µM. The TGI in assay [1] turned out to be 13.5 µM; in assay [2] it was 9.62 µM; in assay [3], 10.7 µM; in assay [4] it was 7.01 µM; in [5], 14 µM; in assay [6], 5.07 µM. Besides, the TGI in assay [7] worked out at 11 µM; in [8], 1.59 µM; in assay [9], 12.4 µM; in assay [10] it was 9.19 µM.

For `COc1cc2c(cc1OC)[C@@H](Nc1ccc(C#N)cc1)C1COC(=O)[C@@H]1C2c1cc(OC)c(O)c(OC)c1` (some centres not stated), the GI50 in assay [1] is 0.665 µM and 2.72 µM; in assay [2], 0.91 µM and 1.39 µM; in [4] it was 0.515 µM and 0.342 µM; in [6] it was 3.26 µM and 5.65 µM; in [7] it was 0.472 µM and 1.55 µM. Besides, the TGI in assay [3] was 23.2 µM and > 100 µM; in [4], 95 µM and > 100 µM; in assay [5], more than 100 µM; in assay [6], 20 µM and 28.4 µM; in [8], 35.9 µM; in [9], 2.28 µM. In assay [10], this molecule gave a TGI of 0.0742 µM.

Consider `Nc1nccc(-c2c(-c3ccc(F)cc3)ncn2C2CCNCC2)n1`, for which the GI50 in assay [1] is 9.58 µM and 3.89 µM; in assay [2] it was > 25 µM and 6.43 µM; in assay [3], 1.68 µM and 1.28 µM; in assay [4], 13.3 µM and 3.85 µM; in assay [5], 0.62 µM and 0.827 µM; in [6], 6.78 µM and 4.93 µM. Besides, the GI50 in assay [7] is 5.88 µM and 1.43 µM; in assay [8], 2.35 µM and 3.6 µM; in assay [9], 7.71 µM and 2.13 µM; in assay [10], 10.2 µM and 2.23 µM. For the same molecule, the TGI in assay [1] was > 25 µM and 12.2 µM; in assay [2] it was more than 25 µM; in [3], more than 25 µM; in assay [4], more than 25 µM; in [5], more than 17.2 µM; in assay [6], more than 25 µM. For the same molecule, the TGI in [7] is more than 25 µM; in assay [8] it was > 25 µM and 10.5 µM; in assay [9], more than 25 µM; in [10], more than 25 µM.

Take `Cc1cccc(N(C)C(=O)[C@@H]2[C@H](O)CCN2c2nc(C)cc(C(F)(F)F)c2C#N)c1`: the GI50 in assay [1] was 22.7 µM; in assay [2] it was 27.9 µM; in [3], 15.6 µM; in [4], 16.3 µM; in assay [5] it was 26.1 µM; in assay [6], 15.2 µM. For the same molecule, the GI50 in [7] is 28.1 µM; in assay [8], 14.6 µM; in assay [9], 17.3 µM; in assay [10], 5.24 µM. Moreover, the TGI in assay [1] is 88.1 µM; in assay [2], more than 100 µM; in assay [3], 49.1 µM; in assay [4] it was 34.5 µM; in assay [5], more than 100 µM; in [6] it was 81.3 µM. Further, the TGI in assay [7] was more than 100 µM; in assay [8] it was 40.1 µM; in assay [9], 50.1 µM; in [10], 28.6 µM.

As to `O=C(Nc1ccc2[nH]nc(-c3ccncc3)c2c1)[C@@H]1CCN(CC(=O)N2CCN(c3ccc(-c4ncccn4)cc3)CC2)C1`, the GI50 in [1] is 0.241 µM; in assay [2], 7.79 µM; in assay [3], 0.0335 µM; in assay [4], 0.0282 µM; in [5], more than 100 µM; in [6], more than 100 µM. For the same molecule, the GI50 was 3.65 µM in assay [7], 2.84 µM in [8], more than 100 µM in assay [9] and 4.41 µM in assay [10]. Besides, the TGI in assay [1] is more than 100 µM; in assay [2] it was more than 100 µM; in assay [3], more than 100 µM; in assay [4] it was 0.289 µM; in assay [5], more than 100 µM; in assay [6] it was more than 100 µM. Besides, the TGI in [7] was more than 100 µM; in assay [8], more than 100 µM; in assay [9] it was more than 100 µM; in assay [10], more than 65.4 µM.
